How the values were obtained:
[1] = system: rats with middle cerebral artery occlusion (MCAO); test: Acute cerebral infarction model in rats with middle cerebral artery occlusion (MCAO); type: in vivo, male SD rats; details: MCAO
Excerpt: (§1) After obtaining the active molecules that can promote the expression of VEGF-A mRNA in the animal model of inflammatory angiogenesis, a rat model of cerebral infarction was used for further verification. Following the method as described in Longa, E. Z., Longa, E. Z., Weinstein, P. R., Carlson, S. & Commin, R. Reversible middle cerebral artery occlusion without craniectomy in rats. [J]. Stroke, 1989. 1: 84-91, an acute cerebral infarction model was established in rats with middle cerebral artery occlusion (MCAO); and following the method as described in C. dela Torre, T. Fortin, G. A. S. Park, K. S. Butler, P. Kozlowski, B. A. Pappas, H. de Socarraz, J. K. Saunders and M. T. Richard. [J]. Brain Research, 1992. 582:186-195, a chronic cerebral ischemia model was established in rats with permanent ligation of bilateral common carotid arteries (2VO). The inhibition on cerebral infarction and neuroprotection for brain injury of the active molecules screened in Effect Example 2 were verified.
The control drugs were: Edaravone (purchased from Zhejiang Shengtong Biotechnology Co., Ltd.), Clopidogrel bisulfate (purchased from Wuhan Yuancheng Gongchuang Technology Co., Ltd.), and Salvianolate (purchased from Henan Provincial People's Hospital). Clopidogrel bisulfate is a platelet aggregation inhibitor, and Edaravone is a brain protectant (free radical scavenger). The MCAO model of rats was made by the thread occlusion method. The rats used in this effect example were male SD rats weighing 280-320 grams, purchased from Shanghai SLAC Laboratory Animal Co., Ltd. Five SD (Sprague Dawley) rats in each group were administered by intraperitoneal injection, 2 h before surgery, and every 24 h after modeling.
Three days later, the brain was taken, and the rat brain was stained with TTC (2,3,5-triphenyltetrazolium chloride, to detect the cell viability) and then photographed. Infarction rate (%)=(Non-infarction area of right brain section−non-infarction area of left brain section)/total area of brain section*100%. According to t tests, *P<0.05, **P<0.01, ***P<0.001 compared with the model group (MCAO). Infarction inhibition rate (%) at different doses=(infarction rate of model group-infarction rate of treatment group)/infarction rate of model group*100%. The infarction inhibition rate at different doses was plotted, and the ED50 of the drug was calculated.
Moreover, the body weight of the rats was recorded. The rate of body weight change was calculated according to a formula: Rate of body weight change (%)=(final weight-initial weight)/[…].
Three days after the acute cerebral infarction model was established in rats with MCAO, the test rats were scored for neurological function according to the Longa nerve scoring standard.
Three days after the acute cerebral infarction model of MCAO was established in rats, the intact brain tissue was taken out, olfactory bulb and the brain tissue that is 4 mm in front of the frontal pole was removed, and the immediately adjacent brain tissue of 2 mm thick was taken for water content measurement in the brain. The water content in brain tissue is calculated by the formula: (WW−DW)/WW×100%, where WW is the wet weight and DW is the dry weight. Three days after the acute cerebral infarction model of MCAO was established in rats, the brain tissue was stained with Evans Blue (EB, a commonly used azo dye preparation) to evaluate the permeability across the blood-brain barrier (BBB), so as to evaluate the integrity of blood-brain barrier. Both experiments were tested with the optimal dose of each drug previously determined: TG-028 (5 mg/Kg), Salvianolate (20 mg/Kg), Clopidogrel bisulfate (40 mg/Kg), Edaravone (40 mg/Kg).

[2] = system: rats with permanent ligation of bilateral common carotid arteries (2VO); test: Chronic cerebral ischemia model in rats with permanent ligation of bilateral common carotid arteries (2VO); type: in vivo
Excerpt: as §1
In the later period of the present invention, a chronic cerebral ischemia model was established in rats with permanent ligation of bilateral common carotid arteries (2VO). TG-028 (5 mg/kg) was administered to 5 rats in each group daily by intraperitoneal injection for 3 weeks. The effects of TG-028 and the control drug Edaravone (40 mg/kg) in the rat model of chronic cerebral ischemia were observed.
3 weeks after the establishment of the rat model of 2VO chronic cerebral ischemia, the Morris water maze experiment was performed on the test rats to determine the effects of drugs on animal learning and memory. The test rats were subjected to ambient positioning and memory training for 5 days. On Day 5 of the training, a positioning navigation experiment was carried out, and the duration for each group of rats from the time of entering the water from different water entry points facing the pool wall to the time of finding the platform, that is, the escape incubation period, was recorded. On Day 6, the platform was removed and a space exploration experiment was carried out. The swimming time of the rats in the target quadrant, the dwell time in the target quadrant, the distance in the target quadrant, and the number of passes through the platform were recorded in 120 s from the time of entering water from a quadrant opposing the target quadrant. The results of the water maze positioning and navigation experiment are shown in FIG. 8 (where Sham is a sham operation group).
After permanent ligation of the bilateral common carotid arteries, a 5-day positioning training was carried out, and […] Morris water maze space exploration experiment was performed after the training.

[3] = system: HUVEC-12 endothelial cells; test: Tubule formation of HUVEC-12 endothelial cells (Matrigel); type: cell-based, Human; details: direct treatment of HUVEC-12, 3 h; compounds 10 μM, VEGF165 10 ng/mL; vs control medium
Method: (§2) The experiment included seven groups. In Group 1, HUVEC-12 endothelial cells (purchased from Shanghai RongChuang Biotech Co., Ltd.) were treated directly with simple DMEM medium (Gibcol, Shanghai) containing 10% FBS (SERANA, Germany) (control). In Group 2, the endothelial cells were treated with the supernatant obtained 24 h after macrophages were cultured with DMEM medium containing 10% FBS (s-control). In Group 3, the endothelial cells cultured with DMEM medium containing 10% FBS were treated directly with TG-028 (TG-028, 10 μM). In Group 4, the endothelial cells were treated with the supernatant obtained after macrophages cultured with DMEM medium containing 10% FBS were treated and co-incubated with TG-028 for 24 h (s-TG-028, […]). In Group 5, the endothelial cells cultured with DMEM medium containing 10% FBS were treated directly with Cpd-18 (Salvianolate) (cpd-18, 10 μM). In Group 6, the endothelial cells were treated with the supernatant obtained after macrophages cultured with DMEM medium containing 10% FBS were treated and co-incubated with Cpd-18 (Salvianolate, 10 μM) for 24 h (s-cpd18). In Group 7, the endothelial cells cultured with DMEM medium containing 10% FBS were treated directly with VEGFD (Recombinant Human VEGF165, 10 ng/mL).
A 96-well plate and sterile yellow pipette tip were stored overnight in a refrigerator at −20° C. The packed Matrigel was thawed overnight in a refrigerator at 4° C. before the experiment. On the following day, the Matrigel thawed was centrifuged for a few minutes. 60 μL per well of the pre-cooled Matrigel was added to a 96-well plate in an ice bath on a ultra-clean bench, and then allowed to stand in an incubator for 1 h. After Matrigel was solidified, HUVEC-12 cells in logarithmic growth phase were taken and adjusted for the cell density. The cells were well mixed with each group of medium at a density of 5×10^4 cells/well and inoculated into a 96-well plate. […] The tube-like structure was analyzed by ImageJ image-analysis software, and the tube formation ability was evaluated using number of master junction as a quantitative index.

[4] = system: HUVEC-12 endothelial cells; test: Migration of HUVEC-12 endothelial cells (scratch test); type: cell-based, Human; details: direct treatment of HUVEC-12, 24 h; compounds 10 μM, VEGF165 10 ng/mL; vs control medium
Method: as §2
Human umbilical vein endothelial cells HUVEC-12 in logarithmic growth phase were counted, adjusted to a cell density of 5×10^5 cells/mL, and inoculated in 1 mL per well in a 6-well plate. The cells were conventionally cultured in an incubator to form monolayer cells of 90% confluency. The 6-well plate fully plated with cells was scratched perpendicular to the cell surface with a 200 μL pipette tip from one end to the other end of the well. The scratches were made transversely with the pipette tip being as perpendicular as possible to the bottom of the plate. […]
The medium was aspirated and the cells scratched off were washed off with PBS. […] The migration of endothelial cells was detected according to the cell scratch method and the relative migration rate was calculated. […]

CC1=NN(c2ccccc2)C(=O)C1 [Edaravone, reference compound]
ED50 ([1]; Rattus norvegicus, ip, 72 h, intraperitoneal injection, TTC staining after 3 days, read-out: ED50 for infarction inhibition rate (%)): 25.7 mg/kg | HE staining and Nissl staining of brain sections, hippocampal CA3 neurons (in words) ([2]; 3 weeks after chronic cerebral ischemia, compared with 2VO+NaCl, FIG. 10): cell morphology in the 2VO+Edaravone group is also improved | Morris water maze positioning and navigation: escape incubation period and total distance (in words) ([2]; TG-028 5 mg/kg, Edaravone 40 mg/kg, 3 weeks of administration, FIG. 8): different from those of the 2VO+NaCl group | Morris water maze space exploration: number of passes through the platform compared with 2VO+NaCl group ([2]; TG-028 5 mg/kg, Edaravone 40 mg/kg, 3 weeks, FIG. 9): no significant difference | change in body weight compared with sham operation group (in words) ([2]; TG-028 5 mg/kg, Edaravone 40 mg/kg, i.p. daily, after 1 week, FIG. 7): no significant weight increase compared with the sham operation group

VEGF
effect on tube formation of endothelial cells (in words) [3]: significant effect on the tube formation of endothelial cells | inhibitory effect on cerebral infarction (in words) ([1]; after 3 days, FIGS. 11-13): can inhibit cerebral infarction in rats | effect on migration of endothelial cells (in words) [4]: significant effect on the migration of endothelial cells
